Laboratory results taken from patent US7625896B2, “Pyridylsulfonamide derivatives” (Hoffman-La Roche Inc., priority 2005, dated 2009).
Structures can show the parent of a compound that is named as a salt.

System: HCT 116 cells
Assay: Viability assay in HCT 116 cells (CellTiter-Glo Luminescent Cell Viability Assay)
Type: cell-based
Conditions: HCT 116 human colon carcinoma cells, 5 days (120 h) incubation, 10 concentrations 30 μM to 0.0015 μM, ATP luminescence
Protocol: Viability Assay in HCT 116 Cells
A viability assay was performed using the CellTiter-Glo® Luminescent Cell Viability Assay (see Promega Corporation's Technical Bulletin No. 288, pp. 1-11 [revised February 2004] which is hereby incorporated by reference in its entirety). This assay is a homogeneous method of determining the number of viable cells in culture based on quantitation of the ATP present, an indicator of metabolically active cells. The assay is designed for use with multiwell formats, making it ideal for automated high-throughput screening (HTS), cell proliferation and cytotoxicity assays. The homogeneous assay procedure involves adding a single reagent (containing luciferase, luciferan substrate, and buffer) directly to cells cultured in serum-supplemented medium. Cell washing, removal of medium and multiple pipetting steps are not required. The system detects as few as 15 cells/well in a 384-well format in 10 minutes after adding reagent and mixing.
The homogeneous “add-mix-measure” format results in cell lysis and generation of a luminescent signal proportional to the amount of ATP present. The amount of ATP is directly proportional to the number of cells present in culture. The above-referenced assay generates a “glow-type” luminescent signal, produced by the luciferase reaction, which has a half-life generally greater than five hours, depending on cell type and medium used. The extended half-life eliminates the need to use reagent injectors and provides flexibility for continuous or batch mode processing of multiple plates. The unique homogeneous format avoids errors that may be introduced by other ATP measurement methods that require multiple steps.
HCT 116 cells (human colon carcinoma, ATCC-No. CCl-247) were cultivated in RPMI 1640 medium with GlutaMAX™ I (cell culture media that contains L-Alanyl-L-Glutamine [a stabilized form/source of L-Glutamine] from Invitrogen, Cat-No. 61870-010), 5% Fetal Calf Serum (FCS, Sigma Cat-No. F4135 (FBS)); 100 Units/ml penicillin/100 μg/ml streptomycin (=Pen/Strep from Invitrogen Cat. No. 15140). For the assay the cells were seeded in 384 well plates, 1000 cells per well, in the same medium. The next day the test compounds were added in various concentrations ranging from 30 μM to 0.0015 μM (10 concentrations, 1:3 diluted). After 5 days the viability assay was performed according to the instructions of the manufacturer. In brief: the cell-plate was equilibrated to room temperature for approximately 30 minutes and then the reagent (containing luciferase, luciferan substrate, and buffer) was added. The contents were carefully mixed for 15 minutes to induce cell lysis. After 45 minutes the luminescent signal was measured in Victor 2, (scanning multiwell spectrophotometer, Wallac).
1st. Day: • Medium: RPMI 1640 with GlutaMAX™ I (Invitrogen, Cat-No. 61870), 5% FCS (Sigma Cat.-No. F4135), Pen/Strep (Invitrogen, Cat No. 15140). • HCT116 (ATCC-No. CCl-247): 1000 cells in 60 μl per well of 384 well plate (Greiner 781098, μClear-plate white) • After seeding incubate plates 24 h at 37° C., 5% CO2
2nd. Day: Induction (Treatment with Compounds, 10 Concentrations):
In order to achieve a final concentration of 30 μM as highest concentration 3.5 μl of 10 mM compound stock solution were added directly to 163 μl media. Then step e) of the dilution procedure described below, was followed.

| SMILES | IC50 [µM] |
| --- | --- |
| Cc1cc(Br)ccc1C(=O)NS(=O)(=O)c1ccc(N2CCOCC2)nc1 [Example 1-3, 6-Morpholin-4-yl-pyridine-3-sulfonic acid 4-bromo-2-methyl-benzoylamide; sodium salt] | 1 to 16 |
| CC1CCCN(c2ccc(S(=O)(=O)NC(=O)c3ccc(Cl)cc3C(F)(F)F)cn2)C1 (centres unmarked) [Example 1-51, 3-Methyl-3,4,5,6-tetrahydro-2H-[1,2′]bipyridinyl-5′-sulfonic acid 4-chloro-2-trifluoromethyl-benzoylamide; ammonium salt] | 1 to 16 |
| COc1cc(Cl)ccc1C(=O)NS(=O)(=O)c1ccc(N2CCSCC2)nc1 [Example 1-47, 6-Thiomorpholin-4-yl-pyridine-3-sulfonic acid 4-chloro-2-methoxy-benzoylamide] | 1 to 16 |
| Cc1ccc(C(=O)NS(=O)(=O)c2ccc(N3CCOCC3)nc2)c(Br)c1 [Example 1-4, 6-Morpholin-4-yl-pyridine-3-sulfonic acid 2-bromo-4-methyl-benzoylamide; sodium salt] | 1 to 16 |
| O=C(NS(=O)(=O)c1ccc(N2CCSCC2)nc1)c1ccc(Cl)cc1C(F)(F)F [Example 1-56, 6-Thiomorpholin-4-yl-pyridine-3-sulfonic acid 4-chloro-2-trifluoromethyl-benzoylamide; ammonium salt] | 1 to 16 |
| O=C(NS(=O)(=O)c1ccc(Oc2ccccc2)nc1)c1ccc(Br)cc1Cl [Example 1-28, 6-Phenoxy-pyridine-3-sulfonic acid 4-bromo-2-chloro-benzoylamide; sodium salt] | 1 to 16 |
| O=C(NS(=O)(=O)c1ccc(N2CCSCC2)nc1)c1ccc(F)cc1C(F)(F)F [Example 1-80, 6-Thiomorpholin-4-yl-pyridine-3-sulfonic acid 4-fluoro-2-trifluoromethyl-benzoylamide] | 1 to 16 |
| Cc1ccc(C(=O)NS(=O)(=O)c2ccc(Oc3ccccc3)nc2)c(Br)c1 [Example 1-40, 6-Phenoxy-pyridine-3-sulfonic acid 2-bromo-4-methyl-benzoylamide; sodium salt] | 1 to 16 |
| C[C@@H]1CN(c2ccc(S(=O)(=O)NC(=O)c3ccc(Cl)cc3C(F)(F)F)cn2)C[C@H](C)O1 [Example 1-72, 6-((2R,6S)-2,6-Dimethyl-morpholin-4-yl)-pyridine-3-sulfonic acid 4-chloro-2-trifluoromethyl-benzoylamide] | 1 to 16 |
| O=C(NS(=O)(=O)c1ccc(N2CCCCCC2)nc1)c1ccc(F)cc1C(F)(F)F [Example 1-78, 6-Azepan-1-yl-pyridine-3-sulfonic acid 4-fluoro-2-trifluoromethyl-benzoylamide] | 1 to 16 |
| CCCN(CCC)c1ccc(S(=O)(=O)NC(=O)c2ccc(Cl)cc2C(F)(F)F)cn1 [Example 1-54, 6-Dipropylamino-pyridine-3-sulfonic acid 4-chloro-2-trifluoromethyl-benzoylamide] | 1 to 16 |
| O=C(NS(=O)(=O)c1ccc(Oc2ccccc2)nc1)c1ccc(C(F)(F)F)cc1F [Example 1-15, 6-Phenoxy-pyridine-3-sulfonic acid 2-fluoro-4-trifluoromethyl-benzoylamide; sodium salt] | 1 to 16 |
| O=C(NS(=O)(=O)c1cnc(Cl)c(Br)c1)c1ccc(Cl)cc1Cl [Example 1-13, 5-Bromo-6-chloro-pyridine-3-sulfonic acid 2,4-dichloro-benzoylamide; sodium salt] | 1 to 16 |
| O=C(NS(=O)(=O)c1ccc(N2CCOCC2)nc1)c1ccc(Cl)cc1Br [Example 1-29, 6-Morpholin-4-yl-pyridine-3-sulfonic acid 2-bromo-4-chloro-benzoylamide; sodium salt] | 1 to 16 |
| COc1cc(Cl)ccc1C(=O)NS(=O)(=O)c1ccc(N2CCC(OC)CC2)nc1 [Example 1-45, 4-Methoxy-3,4,5,6-tetrahydro-2H-[1,2′]bipyridinyl-5′-sulfonic acid 4-chloro-2-methoxy-benzoylamide; sodium salt] | 1 to 16 |
| O=C(NS(=O)(=O)c1ccc(Oc2ccccc2)nc1)c1ccc(Cl)cc1Br [Example 1-33, 6-Phenoxy-pyridine-3-sulfonic acid 2-bromo-4-chloro-benzoylamide; sodium salt] | 1 to 16 |
| O=C(NS(=O)(=O)c1ccc(N2CCSCC2)nc1)c1ccc(Cl)cc1Cl [Example 1-71, 6-Thiomorpholin-4-yl-pyridine-3-sulfonic acid 2,4-dichloro-benzoylamide] | 1 to 16 |
| O=C(NS(=O)(=O)c1cnc(Cl)c(Br)c1)c1ccc(C(F)(F)F)cc1C(F)(F)F [Example 1-18, 5-Bromo-6-chloro-pyridine-3-sulfonic acid 2,4-bis-trifluoromethyl-benzoylamide; sodium salt] | 1 to 16 |
| O=C(NS(=O)(=O)c1ccc(Oc2ccccc2)nc1)c1ccc(Cl)cc1F [Example 1-20, 6-Phenoxy-pyridine-3-sulfonic acid 4-chloro-2-fluoro-benzoylamide; sodium salt] | 1 to 16 |
| O=C(NS(=O)(=O)c1ccc(N2CCSCC2)nc1)c1ccc(F)cc1Cl [Example 1-68, 6-Thiomorpholin-4-yl-pyridine-3-sulfonic acid 2-chloro-4-fluoro-benzoylamide] | 1 to 16 |
| O=C(NS(=O)(=O)c1ccc(Oc2ccccc2)nc1)c1ccc(F)cc1C(F)(F)F [Example 1-21, 6-Phenoxy-pyridine-3-sulfonic acid 4-fluoro-2-trifluoromethyl-benzoylamide; sodium salt] | 1 to 16 |
| CCCN(C)c1ccc(S(=O)(=O)NC(=O)c2ccc(F)cc2Cl)cn1 [Example 1-63, 6-(Methyl-propyl-amino)-pyridine-3-sulfonic acid 2-chloro-4-fluoro-benzoylamide] | 1 to 16 |

Other lines, results leading:

| IC50 [µM] | SMILES |
| --- | --- |
| 1 to 16 | O=C(NS(=O)(=O)c1ccc(N2CCOCC2)nc1)c1ccc(F)cc1Cl [Example 1-10, 6-Morpholin-4-yl-pyridine-3-sulfonic acid 2-chloro-4-fluoro-benzoylamide; sodium salt] |
| 1 to 16 | CCCCN(CC)c1ccc(S(=O)(=O)NC(=O)c2ccc(Cl)cc2C(F)(F)F)cn1 [Example 1-59, 6-(Butyl-ethyl-amino)-pyridine-3-sulfonic acid 4-chloro-2-trifluoromethyl-benzoylamide; ammonium salt] |
| 1 to 16 | O=C(NS(=O)(=O)c1ccc(N2CCCCCC2)nc1)c1ccc(Cl)cc1Cl [Example 1-69, 6-Azepan-1-yl-pyridine-3-sulfonic acid 2,4-dichloro-benzoylamide] |
| 1 to 16 | O=C(NS(=O)(=O)c1ccc(N2CCCCCC2)nc1)c1ccc(Cl)cc1C(F)(F)F [Example 1-49, 6-Azepan-1-yl-pyridine-3-sulfonic acid 4-chloro-2-trifluoromethyl-benzoylamide] |
| 1 to 16 | O=C(NS(=O)(=O)c1ccc(N2CCOCC2)nc1)c1ccc(Cl)cc1Cl [Example 1-1, 6-morpholin-4-yl-pyridine-3-sulfonic acid 2,4-dichloro-benzoylamide; sodium salt] |
| 1 to 16 | O=C(NS(=O)(=O)c1cccnc1)c1ccc(C(F)(F)F)cc1C(F)(F)F [Example 1-38, Pyridine-3-sulfonic acid 2,4-bis-trifluoromethyl-benzoylamide; sodium salt] |
| 1 to 16 | O=C(NS(=O)(=O)c1cnc(Cl)c(Br)c1)c1ccc(Cl)cc1Br [Example 1-8, 5-Bromo-6-chloro-pyridine-3-sulfonic acid 2-bromo-4-chloro-benzoylamide; sodium salt] |
| 5.32 | Cc1cc(Cl)ccc1C(=O)NS(=O)(=O)c1ccc(N2CCOCC2)nc1 [Example 1-2, 6-Morpholin-4-yl-pyridine-3-sulfonic acid 4-chloro-2-methyl-benzoylamide; sodium salt] |
| 3.17 | O=C(NS(=O)(=O)c1cccnc1)c1ccc(Cl)cc1Cl [Example 1-24, Pyridine-3-sulfonic acid 2,4-dichloro-benzoylamide; sodium salt] |
| 8.48 | O=C(NS(=O)(=O)c1cnc(Cl)c(Br)c1)c1ccc(Br)cc1Cl [Example 1-7, 5-Bromo-6-chloro-pyridine-3-sulfonic acid 4-bromo-2-chloro-benzoylamide; sodium salt] |
